In brackets after ≈: the same amount, converted by molar mass. Like-named read-outs stand apart in the source and are kept apart here. Positions of bridges follow the written chain, without caps; N, C: chain ends. Non-standard residues stand in square brackets, D forms with d. Residues, ends and D or L forms follow the SMILES beside them. *: point of attachment. Benzoyl(4-Ph) = O=C(c1ccc(-c2ccccc2)cc1)*; Decanoyl(3R-OH) = CCCCCCC[C@@H](O)CC(=O)*; Ala(cPr) = N[C@@H](CC1CC1)C(=O)O; X4 = CCCCCOc1ccc(C(=O)*)cc1; dOrn = NCCC[C@@H](N)C(=O)O; dDab = NCC[C@@H](N)C(=O)O; Dab = NCC[C@H](N)C(=O)O
Assays:
A. baumannii ATCC 19606 = conditions: ATCC 19606
Method in brief: (§1)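 Mid-log cultures grown in Mueller Hinton broth at 37° C were tested by 2-fold broth microdilution at 5×10^5 CFU/mL final. Compounds were dissolved in water and tested over a final range of 32 to 0.015 μg/mL.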

A. baumannii GN_093 PmxR = conditions: GN 093 PmxR
Method in brief: as §1

E. coli ATCC 25922 = conditions: ATCC 25922
Method in brief: as §1

K. pneumoniae ATCC 13883 = conditions: ATCC 13883
Method in brief: as §1

[1] = tested on: K. pneumoniae ATCC 700603, MDR; conditions: ATCC 700603
Method in brief: as §1

[2] = tested on: K. pneumoniae ATCC BAA-2146, NDM-1 pos; conditions: ATCC BAA-2146
Method in brief: as §1

[3] = tested on: K. pneumoniae GN_102 PmxR; conditions: GN 102 PmxR
Method in brief: as §1

[4] = tested on: K. pneumoniae GN_106, PmxR; conditions: GN 106, PmxR
Method in brief: as §1

P. aeruginosa ATCC 27853 = conditions: ATCC 27853
Method in brief: as §1

[5] = tested on: P. aeruginosa GN_043, PmxR
Method in brief: as §1

[6] = tested on: P. aeruginosa GN_105, PmxR; conditions: GN 105, PmxR
Method in brief: as §1

[7] = tested on: S. aureus ATCC 25923, MSSA; conditions: ATCC 25923
Method in brief: as §1

in vitro = conditions: human
Method in brief: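 Fluorescence read-out (excitation 560, emission 590) after a 2 h, 37 °C incubation with 5 μM resazurin, following 24 h compound treatment of cells plated at 4000 per well. CC50 values come from fitting dose–response curves of growth inhibition.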

SMILES	MIC A. baumannii ATCC 19606 (A. baumannii ATCC 19606) [µg/mL]	MIC A. baumannii GN_093 PmxR (A. baumannii GN_093 PmxR) [µg/mL]	MIC E. coli ATCC 25922 (E. coli ATCC 25922) [µg/mL]	MIC K. pneumoniae ATCC 13883 (K. pneumoniae ATCC 13883) [µg/mL]	MIC K. pneumoniae ATCC 700603, MDR [1] [µg/mL]	MIC K. pneumoniae ATCC BAA-2146, NDM-1 pos [2] [µg/mL]	MIC K. pneumoniae GN_102 PmxR [3] [µg/mL]	MIC K. pneumoniae GN_106, PmxR [4] [µg/mL]	MIC P. aeruginosa ATCC 27853 (P. aeruginosa ATCC 27853) [µg/mL]	MIC P. aeruginosa GN_043, PmxR ([5]; P. aeruginosa GN_043, PmxR) [µg/mL]	MIC P. aeruginosa GN_105, PmxR [6] [µg/mL]	MIC S. aureus ATCC 25923, MSSA [7] [µg/mL]	CC50 at 24 h (in vitro) [µM]	MIC, A. baumannii ATCC 19606 (A. baumannii ATCC 19606) [µg/mL]	MIC, E. coli ATCC 25922 (E. coli ATCC 25922) [µg/mL]	MIC, K. pneumoniae ATCC 13883 (K. pneumoniae ATCC 13883) [µg/mL]	MIC, K. pneumoniae ATCC 700603, MDR [1] [µg/mL]	MIC, K. pneumoniae ATCC BAA-2146, NDM-1 pos [2] [µg/mL]	MIC, P. aeruginosa ATCC 27853 (P. aeruginosa ATCC 27853) [µg/mL]	other results
CCCCCCC[C@@H](O)CC(=O)N[C@H](CC(N)=O)C(=O)N[C@H]1CCNC(=O)[C@H](CC(C)C)NC(=O)[C@H](CCN)NC(=O)[C@H](CCN)NC(=O)[C@H](Cc2ccccc2)NC(=O)[C@@H](CC(C)C)NC(=O)[C@H](CCN)NC1=O [compound 6432, 3(R)OH-nC9CO-D-Asn-cyc[L-Dab-L-Dab-D-Leu-L-Phe-L-Dab-L-Dab-L-Leu]] ({Decanoyl(3R-OH)}-[dN][Dab][Dab][dL]F[Dab][Dab]L; lactam 2-C)	32 (≈ 30.2 µM)	>32	16 (≈ 15.1 µM)	16 (≈ 15.1 µM)	16 (≈ 15.1 µM)	16 (≈ 15.1 µM)	4 (≈ 3.78 µM)	4 (≈ 3.78 µM)	16 (≈ 15.1 µM)	4 (≈ 3.78 µM)	8 (≈ 7.56 µM)	>32	> 300	–	–	–	–	–	–	–
CCCCCCC[C@@H](O)CC(=O)N[C@H](CCCN)C(=O)N[C@H]1CCNC(=O)[C@H](CC(C)C)NC(=O)[C@H](CCN)NC(=O)[C@H](CCN)NC(=O)[C@H](CC(C)C)NC(=O)[C@@H](Cc2ccccc2)NC(=O)[C@H](CCN)NC1=O [compound 6443, 3(R)OH-nC9CO-D-Orn-cyc[L-Dab-L-Dab-D-Phe-L-Leu-L-Dab-L-Dab-L-Leu]] ({Decanoyl(3R-OH)}-[dOrn][Dab][Dab][dF]L[Dab][Dab]L; lactam 2-C)	–	16 (≈ 15.1 µM)	–	–	–	–	4 (≈ 3.78 µM)	4 (≈ 3.78 µM)	–	–	2 (≈ 1.89 µM)	–	> 300	16 (≈ 15.1 µM)	8 (≈ 7.56 µM)	8 (≈ 7.56 µM)	8 (≈ 7.56 µM)	8 (≈ 7.56 µM)	2 (≈ 1.89 µM)	MIC P. aeruginosa GN_043, PmxR ([5]; Table 6, polymyxin-resistant): 2 µg/mL (≈ 1.89 µM); MIC, S. aureus ATCC 25923, MSSA [7]: 32 µg/mL (≈ 30.2 µM)
CCCCCOc1ccc(C(=O)N[C@H](CCN)C(=O)N[C@H]2CCNC(=O)[C@H](CC(C)C)NC(=O)[C@H](CCN)NC(=O)[C@H](CCN)NC(=O)[C@H](Cc3ccccc3)NC(=O)[C@@H](CC(C)C)NC(=O)[C@H](CCN)NC2=O)cc1 [compound 6520, 4-(pentyloxy)benzoic acid-D-Dab-cyc[L-Dab-L-Dab-D-Leu-L-Phe-L-Dab-L-Dab-L-Leu]] (X4-[dDab][Dab][Dab][dL]F[Dab][Dab]L; lactam 2-C)	>32	32 (≈ 30.1 µM)	2 (≈ 1.88 µM)	32 (≈ 30.1 µM)	8 (≈ 7.52 µM)	8 (≈ 7.52 µM)	32 (≈ 30.1 µM)	>32	4 (≈ 3.76 µM)	4 (≈ 3.76 µM)	4 (≈ 3.76 µM)	32 (≈ 30.1 µM)	> 300	–	–	–	–	–	–	–
CC(C)C[C@@H]1NC(=O)[C@H](CCN)NC(=O)[C@H](CCN)NC(=O)[C@H](CC(C)C)NC(=O)[C@@H](Cc2ccccc2)NC(=O)[C@H](CCN)NC(=O)[C@@H](NC(=O)[C@@H](CCN)NC(=O)c2ccc(-c3ccccc3)cc2)CCNC1=O [compound 6526, Ph-4-PhCO-D-Dab-cyc[L-Dab-L-Dab-D-Phe-L-Leu-L-Dab-L-Dab-L-Leu]] ({Benzoyl(4-Ph)}-[dDab][Dab][Dab][dF]L[Dab][Dab]L; lactam 2-C)	>32	>32	8 (≈ 7.59 µM)	8 (≈ 7.59 µM)	8 (≈ 7.59 µM)	8 (≈ 7.59 µM)	32 (≈ 30.4 µM)	>32	2 (≈ 1.9 µM)	–	4 (≈ 3.79 µM)	>32	> 300	–	–	–	–	–	–	MIC P. aeruginosa GN_043, PmxR [5]: 1 µg/mL (≈ 0.948 µM)
CCCCCCC[C@@H](O)CC(=O)N[C@H](CCN)C(=O)N[C@H]1CCNC(=O)[C@H](CC(C)C)NC(=O)[C@H](CCN)NC(=O)[C@H](CCN)NC(=O)[C@H](CC(C)C)NC(=O)[C@@H](Cc2ccccc2)NC(=O)[C@H](CCNC(=O)[C@@H](N)CCCNC(=N)N)NC1=O [compound 6655, 3(R)OH-nC9CO-D-Dab-cyc[L-Dab-L-Dab(L-Arg)-D-Phe-L-Leu-L-Dab-L-Dab-L-Leu]] ({Decanoyl(3R-OH)}-[dDab][Dab][Dab](Arg)[dF]L[Dab][Dab]L; lactam 2-C)	–	–	–	–	–	–	–	–	–	–	–	–	> 300	32 (≈ 26.7 µM)	8 (≈ 6.66 µM)	32 (≈ 26.7 µM)	8 (≈ 6.66 µM)	16 (≈ 13.3 µM)	4 (≈ 3.33 µM)	MIC, A. baumannii Cl Ptyela 10073 4512:2, PmxR (A. baumannii GN_093 PmxR): >32 µg/mL; MIC, K. pneumoniae Cl Koprana 10065 0661:1, PmxR [3]: 16 µg/mL (≈ 13.3 µM); MIC, K. pneumoniae Cl 138-16347-20362, PmxR [4]: >32 µg/mL; MIC, P. aeruginosa FADDI-PA070, PmxR ([5]; Table 5, polymyxin-resistant): 4 µg/mL (≈ 3.33 µM); MIC, P. aeruginosa PA9704, PmxR [6]: 4 µg/mL (≈ 3.33 µM); MIC, S. Aureus ATCC 25923, MSSA [7]: 16 µg/mL (≈ 13.3 µM)
CCCCCCC[C@@H](O)CC(=O)N[C@H](CCN)C(=O)N[C@H]1CCNC(=O)[C@H](Cc2c[nH]c3ccccc23)NC(=O)[C@H](CCN)NC(=O)[C@H](CCN)NC(=O)[C@H](CC2CC2)NC(=O)[C@@H](Cc2ccccc2)NC(=O)[C@H](CCN)NC1=O [compound 8099, 3(R)OH-nC9CO-D-Dab-cyc[L-Dab-L-Dab-D-Phe-L-Ala(cycloprop)-L-Dab-L-Dab-L-Trp]] ({Decanoyl(3R-OH)}-[dDab][Dab][Dab][dF][Ala(cPr)][Dab][Dab]W; lactam 2-C)	8 (≈ 7.17 µM)	16 (≈ 14.3 µM)	8 (≈ 7.17 µM)	8 (≈ 7.17 µM)	8 (≈ 7.17 µM)	4 (≈ 3.59 µM)	4 (≈ 3.59 µM)	4 (≈ 3.59 µM)	2 (≈ 1.79 µM)	–	>32	16 (≈ 14.3 µM)	73	–	–	–	–	–	–	MIC P. aeruginosa GN_043, PmxR ([5]; polymyxin-resistant): 2 µg/mL (≈ 1.79 µM)

Source: patent US11279733B2, “Peptide antibiotics” (priority 2017, dated 2022)
